PubChem BioAssay AID1963425 (Molecular Pharmacology Branch, DTP, NCI, 2024)

System: 323965-272-R-J2-PDC complex spheroid growth, % test/control
Test: Anticancer human tumor 323965-272-R-J2-PDC patient-derived pancreatic carcinoma cell line growth inhibition [Asc]
Conditions: for IC50: curve of first compound; for viability, T/C: stronger effect = lower value
Procedure, shortened: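 Complex solid-tumor spheroids incorporating human endothelial and mesenchymal stem cells received single agents or combinations over half-log dilution ranges anchored to clinical Cmax.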
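Further: compound exposure lasted 7 days starting three days after spheroid seeding.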
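Wherever viability, T/C is given: 100% = DMSO vehicle control wells with viability set relative to vehicle.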

CCN1C(C(=O)NC23CCC(C(=O)O)(CC2)CC3)C(c2cccc(Cl)c2F)C2(C(=O)Nc3cc(Cl)ccc32)C12CCCCC2 (configuration not stated) + CNC(C)C(=O)NC1CN(S(=O)(=O)c2cccc(S(=O)(=O)N3CCC4CCC(C(=O)NC(c5ccccc5)c5ccccc5)N4C(=O)C(NC(=O)C(C)NC)C3)c2)CCC2CCC(C(=O)NC(c3ccccc3)c3ccccc3)N2C1=O
IC50 (second compound 0.00316 µM): > 3 µM | IC50 (second compound 0.01 µM): > 3 µM | IC50 (second compound 0.0316 µM): > 3 µM | IC50 (second compound 0.1 µM): > 3 µM | IC50 (second compound 0.316 µM): > 3 µM | IC50 (second compound 1 µM): > 3 µM | viability, T/C (second compound 0.00316 µM, first compound 0.00949 µM): 107% | viability, T/C (second compound 0.00316 µM, first compound 0.03 µM): 93.6% | viability, T/C (second compound 0.00316 µM, first compound 0.0949 µM): 98.2% | viability, T/C (second compound 0.00316 µM, first compound 0.3 µM): 93.1% | viability, T/C (second compound 0.00316 µM, first compound 0.949 µM): 105% | viability, T/C (second compound 0.00316 µM, first compound 3 µM): 89.3% | viability, T/C (second compound 0.01 µM, first compound 0.00949 µM): 110% | viability, T/C (second compound 0.01 µM, first compound 0.03 µM): 97.8% | viability, T/C (second compound 0.01 µM, first compound 0.0949 µM): 101% | viability, T/C (second compound 0.01 µM, first compound 0.3 µM): 93.5% | viability, T/C (second compound 0.01 µM, first compound 0.949 µM): 97% | viability, T/C (second compound 0.01 µM, first compound 3 µM): 89.7% | viability, T/C (second compound 0.0316 µM, first compound 0.00949 µM): 99.9% | viability, T/C (second compound 0.0316 µM, first compound 0.03 µM): 99.1% | viability, T/C (second compound 0.0316 µM, first compound 0.0949 µM): 105% | viability, T/C (second compound 0.0316 µM, first compound 0.3 µM): 101% | viability, T/C (second compound 0.0316 µM, first compound 0.949 µM): 92.2% | viability, T/C (second compound 0.0316 µM, first compound 3 µM): 82.7% | viability, T/C (second compound 0.1 µM, first compound 0.00949 µM): 116% | viability, T/C (second compound 0.1 µM, first compound 0.03 µM): 97.7% | viability, T/C (second compound 0.1 µM, first compound 0.0949 µM): 97.8% | viability, T/C (second compound 0.1 µM, first compound 0.3 µM): 104% | viability, T/C (second compound 0.1 µM, first compound 0.949 µM): 87.5% | viability, T/C (second compound 0.1 µM, first compound 3 µM): 83.9% | viability, T/C (second compound 0.316 µM, first compound 0.00949 µM): 93% | viability, T/C (second compound 0.316 µM, first compound 0.03 µM): 81.6% | viability, T/C (second compound 0.316 µM, first compound 0.0949 µM): 94.8% | viability, T/C (second compound 0.316 µM, first compound 0.3 µM): 93.3% | viability, T/C (second compound 0.316 µM, first compound 0.949 µM): 95.7% | viability, T/C (second compound 0.316 µM, first compound 3 µM): 86.2% | viability, T/C (second compound 1 µM, first compound 0.00949 µM): 90.8% | viability, T/C (second compound 1 µM, first compound 0.03 µM): 87.6% | viability, T/C (second compound 1 µM, first compound 0.0949 µM): 94.7% | viability, T/C (second compound 1 µM, first compound 0.3 µM): 85.5% | viability, T/C (second compound 1 µM, first compound 0.949 µM): 89.5% | viability, T/C (second compound 1 µM, first compound 3 µM): 76.6%
